# Patent publication US20220409743A1, “VIRUS-MIMETIC NANOPARTICLES” (UNIVERSITÄT REGENSBURG, priority 2019, published 2022)
# Tests used:
# Collagen I = experiment: Western Blot of fibrosis marker Collagen I after TGF-β; format: cell-based; conditions: 4 h pre-incubation, 10 ng mL^−1 TGF-β 48 h
# Protocol: (§1) Finally, the anti-fibrotic and anti-proliferative potential of a NP-assisted CCG delivery was analyzed. In that regard, mesangial cells were initially incubated for 4 h either with free CCG, CCG-loaded EXPcRGD NPs or control NPs without encapsulated drug. After 4 h, 10 ng mL^−1 of transforming growth factor β (TGF-β) were added for 48 h to induce a fibrotic and hyperproliferative remodeling.
# α-SMA = experiment: Western Blot / LSM of fibrosis marker α-SMA after TGF-β; format: cell-based; conditions: 4 h pre-incubation, 10 ng mL^−1 TGF-β 48 h
# Protocol: as §1
# sGC = target: T1, sGC (Rattus norvegicus, UniProt P20595); experiment: Western Blot of sGC levels in mesangial cells; format: cell-based; conditions: 24 h incubation; free CCG 2 μM, NPs 0.2 μM CCG
# T1 construct: endogenous in cells; host or cells: mesangial cells
# T1 sequence (P20595 1-619): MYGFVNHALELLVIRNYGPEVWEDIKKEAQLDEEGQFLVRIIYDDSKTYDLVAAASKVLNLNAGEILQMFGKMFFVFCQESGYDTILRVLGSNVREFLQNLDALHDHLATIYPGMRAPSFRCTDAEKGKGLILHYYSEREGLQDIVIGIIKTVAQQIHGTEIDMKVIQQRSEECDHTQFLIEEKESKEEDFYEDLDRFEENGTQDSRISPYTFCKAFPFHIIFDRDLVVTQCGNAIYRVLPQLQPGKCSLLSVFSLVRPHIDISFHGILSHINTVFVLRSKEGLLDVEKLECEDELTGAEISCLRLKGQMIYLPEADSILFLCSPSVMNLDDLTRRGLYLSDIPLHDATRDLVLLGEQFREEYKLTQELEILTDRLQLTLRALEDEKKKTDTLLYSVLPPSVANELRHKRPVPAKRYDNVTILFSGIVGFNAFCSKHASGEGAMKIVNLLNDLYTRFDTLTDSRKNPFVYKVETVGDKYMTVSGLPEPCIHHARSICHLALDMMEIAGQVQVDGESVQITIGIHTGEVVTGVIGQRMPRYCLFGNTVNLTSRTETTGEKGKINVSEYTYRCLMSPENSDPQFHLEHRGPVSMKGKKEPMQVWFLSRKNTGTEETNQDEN
# T1 sequence (P19686 1-690 partner): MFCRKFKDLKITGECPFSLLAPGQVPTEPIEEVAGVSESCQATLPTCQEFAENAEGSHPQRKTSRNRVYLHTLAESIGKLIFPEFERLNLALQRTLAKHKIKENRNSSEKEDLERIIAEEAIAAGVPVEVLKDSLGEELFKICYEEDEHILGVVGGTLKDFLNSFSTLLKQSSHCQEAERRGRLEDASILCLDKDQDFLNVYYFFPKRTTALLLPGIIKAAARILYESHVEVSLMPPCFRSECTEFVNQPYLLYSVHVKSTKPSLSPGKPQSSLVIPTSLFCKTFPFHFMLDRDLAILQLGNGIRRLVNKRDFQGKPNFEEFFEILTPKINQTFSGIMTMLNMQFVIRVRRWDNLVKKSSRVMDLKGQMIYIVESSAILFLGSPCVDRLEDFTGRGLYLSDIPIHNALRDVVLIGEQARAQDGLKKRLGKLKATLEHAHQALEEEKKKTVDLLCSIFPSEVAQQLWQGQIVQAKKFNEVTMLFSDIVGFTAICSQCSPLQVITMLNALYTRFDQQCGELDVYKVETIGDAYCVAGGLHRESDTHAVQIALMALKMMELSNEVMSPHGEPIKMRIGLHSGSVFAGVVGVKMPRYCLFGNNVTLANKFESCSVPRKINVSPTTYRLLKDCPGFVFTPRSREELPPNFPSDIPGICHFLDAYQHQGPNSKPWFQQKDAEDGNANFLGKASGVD
# Protocol: (§2) In the inventors' experimental set-up, CCG was initially encapsulated in hetero-multivalent EXPcRGD NPs. Resulting NPs carried approximately 500-700 CCG molecules per NP (data not shown). In all following experiments, the administration of free cinaciguat at a concentration of 2 μM was compared to CCG-loaded EXPcRGD NPs at a concentration of approximately 0.5 nM (equaling 0.2 μM of CCG) and drug-free EXPcRGD control NPs (FIG. 30). […] CCG-carrying NPs however carried only 10% of respective CCG amount to test a possible drug delivery effect.
# To assess the effect of CCG-loaded EXPcRGD NPs on target sGC, mesangial cells were initially incubated for 24 h and protein quantity was assessed using Western Blot analysis.
# mesangial cells = experiment: Proliferation assay of TGF-β stimulated mesangial cells; format: cell-based; conditions: 4 h pre-incubation, 10 ng mL^−1 TGF-β 48 h
# Protocol: as §1
# PGK1-α = experiment: Western Blot of VASP phosphorylation (PGK1-α activity); format: cell-based; conditions: free CCG 2 μM, NPs 0.2 μM CCG
# Protocol: To assess PGK1-αactivity, phosphorylation of its substrate vasodilator-stimulated phosphoprotein (VASP) was assessed. […] (n=3; ****P<0.0001; ***P<0.001; **P<0.01; *P<0.05).
# as §2
# AT1R = target: T2, AT1R (Rattus norvegicus, UniProt P25095); experiment: Intracellular calcium measurement (Fura-2): ligand affinity and particle avidity for the AT1R; conditions: read-out: IC50, ligand affinity for the AT1R; free ligand; rMCs incubated 30 min prior to stimulation with Ang-II
# T2 sequence (P25095 1-359): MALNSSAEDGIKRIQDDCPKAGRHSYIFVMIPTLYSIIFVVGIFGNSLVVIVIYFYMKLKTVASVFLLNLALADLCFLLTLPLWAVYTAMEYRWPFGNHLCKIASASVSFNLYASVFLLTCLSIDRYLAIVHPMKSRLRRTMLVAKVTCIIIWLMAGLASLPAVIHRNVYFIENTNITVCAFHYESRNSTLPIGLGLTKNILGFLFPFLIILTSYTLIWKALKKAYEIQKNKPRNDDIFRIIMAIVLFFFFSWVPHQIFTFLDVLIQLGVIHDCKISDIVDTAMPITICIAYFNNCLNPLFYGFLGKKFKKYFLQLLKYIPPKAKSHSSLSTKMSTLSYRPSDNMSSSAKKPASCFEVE
# Protocol: In order to assess the AT1R interaction of the different NP formulations a ratiometric Fura-2 Ca^2+ chelator method was used as previously described [1, 3] using AT1R positive rMCs. For that purpose, rMCs were seeded in T-150 flasks (Corning) and incubated until confluent. […] Cells were incubated for 1 hour, light protected, with gentle agitation (50 rpm). Afterwards, the cell suspension was washed with DPBS by centrifugation (2×, 200 g, 5 min, RT), and resuspended in Leibovitz medium supplemented with 2.5 mM Probenecid at a count of 2 million cells/mL. […] To determine the kinetics of the AT1R interaction (FIG. 3D) the same procedure was used, but the samples were incubated for different time periods (from 5 to 320min) with the cells. The maximal and minimal signal ratio, was determined by stimulating the cells with 0.1% Triton-X 100 or 0.1% Triton-X 100 with 45 mM ethylene glycol-bis(2-aminoethylether)-N,N,N′,N′-tetraacetic acid (EGTA), respectively.
sGC levels (sGC),IC50 (AT1R),Compound,Collagen I levels compared to the TGF-β control (Collagen I),α-SMA levels compared to the TGF-β control (α-SMA),Effect on TGF-β induced hyperproliferation (mesangial cells),P-VASP/VASP ratio (PGK1-α)
substantial increase in sGC levels,–,"O=C(O)CCCCN(CCc1ccccc1OCc1ccc(CCc2ccccc2)cc1)Cc1ccc(C(=O)O)cc1 [CCG, Cinaciguat]",drastic reduction,drastic reduction,considerably decreased this effect,considerable increase in P-VASP/VASP ratio
–,900 ± 600 nM,"angiotensin-I (DRVYIHPFHL; Angiotensin-1; UniProt P01019 25-34, looked up) [Ang-I]",–,–,–,–
